Data reported in patent publication US10995101B2, “2-oxo-thiazole derivatives as A2A inhibitors and compounds for use in the treatment of cancers” (iTeos Therapeutics SA, priority 2017, dated 2021).

Legend:
[1] = target: A2A receptor (Homo sapiens, UniProt P29274); assay: Inhibition of cAMP production in HEK cells; format: cell-based; conditions: HEK-293 cells with A2A receptor
[2] = in vitro; conditions: human, Caco-2, pH 7.4
Experimental: 2 μM dosing solutions for reference compounds and test compounds are prepared by spiking the appropriate volume of intermediate solution to TB with and without 1 μM Zosuquidar. The final concentration of DMSO is no more than 1% (v/v).
Caco-2 cells are grown in MEM supplemented with 2 mM L-glutamine, 10% FBS, 100 U/mL penicillin-G and 100 μg/mL streptomycin. The cells are incubated at 37° C., 5% CO2 and relatively saturated humidity. After reaching 80-90% confluency, the cells are gently detached with 0.05% trypsin-EDTA solution.
TB and dosing solutions were pre-warmed to 37° C. before transport assay. The cell monolayer was washed twice with HBSS containing 10 mM HEPES. For A-B (apical to basolateral) directional transport assay, 75 μL dosing solution is added to the apical well. Fill each basolateral well with 250 μL TB. For B-A (basolateral to apical) directional transport assay, 250 μL of dosing solution is added to the basolateral well after filling each apical well with 75 μL TB. […] The plates are incubated for 120 minutes at 37° C. with 5% CO2 and saturated humidity. The time zero samples are generated by mixing 50 μL initial dosing solution of test compound or reference compound with 100 μL TB and 250 μL quench solution (acetonitrile (ACN) or other appropriate solvent with internal standard(s), based on the bioanalytical method development). At 120 minutes, 150 μL of solution is collected from each A-B receiver well followed by addition of 250 μL quench solution to get A-B receiver sample. And for other samples (A-B donor, B-A donor and receiver), 50 μL of solution is collected from each corresponding well followed by addition of 250 μL quench solution and 100 μL TB. All samples are vortex-mixed and centrifuged at 3220 g for 20 minutes. Subsequently, supernatant is diluted with ultra pure water for LC-MS/MS analysis. The concentrations of test compound in all samples are determined by LC-MS/MS and expressed as peak area ratio of analyte to internal standard.
The concentration of samples is expressed using the peak area ratio of Analyte to Internal Standard (Analyte/IS).
The efflux ratio is calculated using the following equation: Efflux ratio=Papp(A−B)/Papp(B−A) • where Papp (A−B) and Papp (B−A) are the Papp values of compound in Apical to Basolateral and Basolateral to Apical directional transport, respectively.

[3] = IC50 (nM) (3 nM NECA as agonist, 0.1% BSA), 3 nM NECA as agonist, 0.1% BSA
[4] = IC50 (nM) (5 nM NECA as agonist, 2% HSA), 5 nM NECA as agonist, 2% HSA
[5] = IC50 (nM) (5 μM Adenosine as agonist, 2.0% HSA), 5 μM Adenosine as agonist, 2.0% HSA

A2A receptor, sequence (P29274 whole entry): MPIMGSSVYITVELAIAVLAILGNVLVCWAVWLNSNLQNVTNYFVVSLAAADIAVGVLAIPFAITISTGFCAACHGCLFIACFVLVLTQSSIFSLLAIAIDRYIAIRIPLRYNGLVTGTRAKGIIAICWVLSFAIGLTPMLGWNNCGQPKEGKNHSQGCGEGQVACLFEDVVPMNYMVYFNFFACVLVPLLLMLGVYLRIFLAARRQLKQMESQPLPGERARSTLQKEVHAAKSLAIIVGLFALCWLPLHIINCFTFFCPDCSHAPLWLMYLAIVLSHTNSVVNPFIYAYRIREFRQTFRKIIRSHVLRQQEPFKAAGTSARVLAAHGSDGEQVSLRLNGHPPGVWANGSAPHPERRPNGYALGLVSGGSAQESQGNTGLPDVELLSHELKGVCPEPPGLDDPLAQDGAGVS

Compound	IC50 [1, 3]	efflux ratio at 120 min, 2 μM [2]	IC50 [1, 4]	IC50 [1, 5]
Nc1nc2c(sc(=O)n2CCN2CCN(c3ccc(OCCO)cc3)CC2)c2nc(-c3ccco3)nn12 [Compound 9, 5-amino-8-(furan-2-yl)-3-(2-(4-(4-(2-hydroxyethoxy)phenyl)piperazin-1-yl)ethyl)thiazolo[5,4-e][1,2,4]triazolo[1,5-c]pyrimidin-2(3H)-one]	3.4 nM	8		
Nc1nc2c(sc(=O)n2CCN2CCN(c3ccc(OCC(=O)O)cc3)CC2)c2nc(-c3ccco3)nn12 [Compound 10, 2-(4-(4-(2-(5-amino-8-(furan-2-yl)-2-oxothiazolo[5,4-e][1,2,4]triazolo[1,5-c]pyrimidin-3(2H)-yl)ethyl)piperazin-1-yl)phenoxy)acetic acid]	2.3 nM	24	14 nM	607 nM
Nc1nc2c(sc(=O)n2CCN2CCN(c3ccc(OCC(=O)N4CCNCC4)cc3F)CC2)c2nc(-c3ccco3)nn12 [Compound 24, 5-amino-3-(2-(4-(2-fluoro-4-(2-oxo-2-(piperazin-1-yl)ethoxy)phenyl)piperazin-1-yl)ethyl)-8-(furan-2-yl)thiazolo[5,4-e][1,2,4]triazolo[1,5-c]pyrimidin-2(3H)-one]	0.8 nM	117	2 nM	137 nM
Nc1nc2c(sc(=O)n2CCN2CCN(c3ccc(OCC4CCNCC4)cc3F)CC2)c2nc(-c3ccco3)nn12 [Compound 25, 5-amino-3-(2-(4-(2-fluoro-4-(piperidin-4-ylmethoxy)phenyl)piperazin-1-yl)ethyl)-8-(furan-2-yl)thiazolo[5,4-e][1,2,4]triazolo[1,5-c]pyrimidin-2(3H)-one]	1.2 nM	472	6 nM	300 nM
Nc1nc2c(sc(=O)n2CCN2CCN(c3ccc(OCCN4CCNCC4)cc3F)CC2)c2nc(-c3ccco3)nn12 [Compound 27, 5-amino-3-(2-(4-(2-fluoro-4-(2-(piperazin-1-yl)ethoxy)phenyl)piperazin-1-yl)ethyl)-8-(furan-2-yl)thiazolo[5,4-e][1,2,4]triazolo[1,5-c]pyrimidin-2(3H)-one]	0.3 nM	187	2 nM	112 nM
NCCNC(=O)c1ccc(N2CCN(CCn3c(=O)sc4c3nc(N)n3nc(-c5ccco5)nc43)CC2)c(F)c1 [Compound 30, 4-(4-(2-(5-amino-8-(furan-2-yl)-2-oxothiazolo[5,4-e][1,2,4]triazolo[1,5-c]pyrimidin-3(2H)-yl)ethyl)piperazin-1-yl)-N-(2-aminoethyl)-3-fluorobenzamide]	0.4 nM	3	1 nM	42 nM
Nc1nc2c(sc(=O)n2CCN2CCN(c3ccc(C(=O)NCC(O)CO)cc3F)CC2)c2nc(-c3ccco3)nn12 (centres unmarked) [Compound 34, 4-(4-(2-(5-amino-8-(furan-2-yl)-2-oxothiazolo[5,4-e][1,2,4]triazolo[1,5-c]pyrimidin-3(2H)-yl)ethyl)piperazin-1-yl)-N-(2,3-dihydroxypropyl)-3-fluorobenzamide]	0.3 nM	192	6 nM	207 nM
Nc1nc2c(sc(=O)n2CCN2CCN(c3ccc(CCC(=O)O)cc3F)CC2)c2nc(-c3ccco3)nn12 [Compound 40, 3-(4-(4-(2-(5-amino-8-(furan-2-yl)-2-oxothiazolo[5,4-e][1,2,4]triazolo[1,5-c]pyrimidin-3(2H)-yl)ethyl)piperazin-1-yl)-3-fluorophenyl)propanoic acid]	0.7 nM	25	7 nM	261 nM
NC(=O)CNCCOc1ccc(N2CCN(CCn3c(=O)sc4c3nc(N)n3nc(-c5ccco5)nc43)CC2)c(F)c1 [Compound 45, 2-((2-(4-(4-(2-(5-amino-8-(furan-2-yl)-2-oxothiazolo[5,4-e][1,2,4]triazolo[1,5-c]pyrimidin-3(2H)-yl)ethyl)piperazin-1-yl)-3-fluorophenoxy)ethyl)amino)acetamide]	0.8 nM	41	3 nM	100 nM
Nc1nc2c(sc(=O)n2CCN2CCN(c3ccc(OC4CCNCC4)cc3F)CC2)c2nc(-c3ccco3)nn12 [Compound 47, 5-amino-3-(2-(4-(2-fluoro-4-(piperidin-4-yloxy)phenyl)piperazin-1-yl)ethyl)-8-(furan-2-yl)thiazolo[5,4-e][1,2,4]triazolo[1,5-c]pyrimidin-2(3H)-one]	1.8 nM	329	1 nM	43 nM
Nc1nc2c(sc(=O)n2CCN2CCN(c3ccc(OC4CCNC4)cc3F)CC2)c2nc(-c3ccco3)nn12 (centres unmarked) [Compound 48, 5-amino-3-(2-(4-(2-fluoro-4-(pyrrolidin-3-yloxy)phenyl)piperazin-1-yl)ethyl)-8-(furan-2-yl)thiazolo[5,4-e][1,2,4]triazolo[1,5-c]pyrimidin-2(3H)-one]	0.1 nM	166		9 nM
CN(C)CCNC(=O)COc1ccc(N2CCN(CCn3c(=O)sc4c3nc(N)n3nc(-c5ccco5)nc43)CC2)c(F)c1 [Compound 51, 2-(4-(4-(2-(5-amino-8-(furan-2-yl)-2-oxothiazolo[5,4-e][1,2,4]triazolo[1,5-c]pyrimidin-3(2H)-yl)ethyl)piperazin-1-yl)-3-fluorophenoxy)-N-(2-(dimethylamino)ethyl)acetamide]	0.3 nM	469		16 nM
NCCNC(=O)COc1ccc(N2CCN(CCn3c(=O)sc4c3nc(N)n3nc(-c5ccco5)nc43)CC2)c(F)c1 [Compound 52, 2-(4-(4-(2-(5-amino-8-(furan-2-yl)-2-oxothiazolo[5,4-e][1,2,4]triazolo[1,5-c]pyrimidin-3(2H)-yl)ethyl)piperazin-1-yl)-3-fluorophenoxy)-N-(2-aminoethyl)acetamide]	0.3 nM	34	1 nM	26 nM
NC(=O)COc1ccc(N2CCN(CCn3c(=O)sc4c3nc(N)n3nc(-c5ccco5)nc43)CC2)c(F)c1 [Compound 54, 2-(4-(4-(2-(5-amino-8-(furan-2-yl)-2-oxothiazolo[5,4-e][1,2,4]triazolo[1,5-c]pyrimidin-3(2H)-yl)ethyl)piperazin-1-yl)-3-fluorophenoxy)acetamide]	0.8 nM	24	3 nM	138 nM
CNCCN(C)C(=O)c1ccc(N2CCN(CCn3c(=O)sc4c3nc(N)n3nc(-c5ccco5)nc43)CC2)c(F)c1 [Compound 55, 4-(4-(2-(5-amino-8-(furan-2-yl)-2-oxothiazolo[5,4-e][1,2,4]triazolo[1,5-c]pyrimidin-3(2H)-yl)ethyl)piperazin-1-yl)-3-fluoro-N-methyl-N-(2-(methylamino)ethyl)benzamide]	1 nM	205	2 nM	141 nM
CN(C)CCN(C)C(=O)c1ccc(N2CCN(CCn3c(=O)sc4c3nc(N)n3nc(-c5ccco5)nc43)CC2)c(F)c1 [Compound 56, 4-(4-(2-(5-amino-8-(furan-2-yl)-2-oxothiazolo[5,4-e][1,2,4]triazolo[1,5-c]pyrimidin-3(2H)-yl)ethyl)piperazin-1-yl)-N-(2-(dimethylamino)ethyl)-3-fluoro-N-methylbenzamide]	0.2 nM	1750	1 nM	25 nM
C[C@H](CN(C)C)NC(=O)c1ccc(N2CCN(CCn3c(=O)sc4c3nc(N)n3nc(-c5ccco5)nc43)CC2)c(F)c1 [Compound 57, (R)-4-(4-(2-(5-amino-8-(furan-2-yl)-2-oxothiazolo[5,4-e][1,2,4]triazolo[1,5-c]pyrimidin-3(2H)-yl)ethyl)piperazin-1-yl)-N-(1-(dimethylamino)propan-2-yl)-3-fluorobenzamide]	0.2 nM	2200	2 nM	56 nM
CNCCNC(=O)COc1cc(N2CCN(CCn3c(=O)sc4c3nc(N)n3nc(-c5ccco5)nc43)CC2)c(F)cc1F [Compound 62, 2-(5-(4-(2-(5-amino-8-(furan-2-yl)-2-oxothiazolo[5,4-e][1,2,4]triazolo[1,5-c]pyrimidin-3(2H)-yl)ethyl)piperazin-1-yl)-2,4-difluorophenoxy)-N-(2-(methylamino)ethyl)acetamide]	0.5 nM	23	1 nM	21 nM
CN(C)CCNC(=O)COc1cc(N2CCN(CCn3c(=O)sc4c3nc(N)n3nc(-c5ccco5)nc43)CC2)c(F)cc1F [Compound 63, 2-(5-(4-(2-(5-amino-8-(furan-2-yl)-2-oxothiazolo[5,4-e][1,2,4]triazolo[1,5-c]pyrimidin-3(2H)-yl)ethyl)piperazin-1-yl)-2,4-difluorophenoxy)-N-(2-(dimethylamino)ethyl)acetamide]	0.3 nM	264	1 nM	12 nM
CN(C)CCN(C)C(=O)c1cc(N2CCN(CCn3c(=O)sc4c3nc(N)n3nc(-c5ccco5)nc43)CC2)c(F)cc1F [Compound 64, 5-(4-(2-(5-amino-8-(furan-2-yl)-2-oxothiazolo[5,4-e][1,2,4]triazolo[1,5-c]pyrimidin-3(2H)-yl)ethyl)piperazin-1-yl)-N-(2-(dimethylamino)ethyl)-2,4-difluoro-N-methylbenzamide]	0.6 nM	60	1 nM	36 nM
Nc1nc2c(sc(=O)n2CCN2CCN(c3cc(OCc4nnn[nH]4)c(F)cc3F)CC2)c2nc(-c3ccco3)nn12 [Compound 66, 3-(2-(4-(5-((1H-tetrazol-5-yl)methoxy)-2,4-difluorophenyl)piperazin-1-yl)ethyl)-5-amino-8-(furan-2-yl)thiazolo[5,4-e][1,2,4]triazolo[1,5-c]pyrimidin-2(3H)-one]	0.8 nM	1010	13 nM	543 nM
